Test results published in patent publication US10344019B2 (priority 2010, dated 2019).
Read-outs that look alike come from different tables or passages of the source.

Experiments:
Assay type in all cases: cell-based
[1] = tested on: HCV 2a Rluc cells (NS5A chimeric genotype 2a JFH-1 replicon with genotype 2a J6 strain NS5A gene, M31 present); assay: HCV replicon reporter assay, genotype 2a J6 (M31 present); settings: Hepatitis C virus, read-out: 2a J6
Method in brief: (§1)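 Renilla luciferase HCV replicon cells: dicistronic 1b Con1, 1a H77 or 2a JFH-1 replicons, or a JFH-1 chimera carrying J6 NS5A (M31 present). Compound in DMSO serial dilutions, 72 h incubation, then lysis and luciferase read. EC50 by non-linear regression.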

[2] = tested on: HCV 2a JFH-1 Rluc cells (dicistronic genotype 2a JFH-1 replicon, RLuc reporter); assay: microbe, parasite or virus in culture; settings: Hepatitis C virus, read-out: 2a JFH
Method in brief: as §1

[3] = tested on: HCV 2b Rluc cells (NS5A chimeric genotype 2a JFH-1 replicon with genotype 2b MD2b-1 NS5A gene, M31 present); assay: microbe, parasite or virus in culture; settings: Hepatitis C virus, read-out: 2b
Method in brief: (§2)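 Replicon cells stably carrying the listed RLuc-encoding dicistronic replicons were seeded and treated with DMSO serial dilutions of compound (10 mM stocks) diluted into culture medium. After 72 h, cells were lysed and Renilla luciferase activity measured. EC50 was derived by non-linear regression.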

[4] = tested on: HCV 3a RLuc cells (NS5A chimeric genotype 1b Con1 replicon with consensus genotype 3a NS5A gene); assay: microbe, parasite or virus in culture; settings: Hepatitis C virus
Method in brief: as §2

[5] = tested on: HCV 1a RLuc cells (dicistronic genotype 1a H77 replicon, RLuc reporter); assay: microbe, parasite or virus in culture; settings: Hepatitis C virus, read-out: 1a
Method in brief: as §1

[6] = tested on: Q30R in genotype 1a NS5A, 1a Rluc replicon transfected into Huh-7 cured-51 cells; assay: HCV replicon assay, resistance mutant 1a Q30R; settings: Hepatitis C virus, Huh-7, read-out: 1a Q30R
Description: Evaluation of cell-based anti-HCV activity: Antiviral potency (EC50) was determined using a Renilla luciferase (RLuc)-based HCV replicon reporter assay. To perform the assay for genotype 1 and 2a JFH-1, HCV 1b RLuc cells (harboring a dicistronic genotype 1b Con1 replicon that encodes a RLuc reporter), or HCV 1a RLuc cells (harboring a dicistronic genotype 1a H77 replicon that encodes a RLuc reporter), or HCV 2a JFH-1 Rluc cells (harboring a dicistronic genotype 2a JFH-1 replicon that encodes a RLuc reporter) were dispensed into 384-well plates. To perform the assay for genotype 2a (with M31 present) or 2b, HCV 2a Rluc or 2b Rluc cells (both with M31 present) harboring a dicistronic NS5A chimeric genotype 2a JFH-1 replicon that encodes a RLuc reporter and either genotype 2a J6 strain NS5A gene or genotype 2b MD2b-1 NS5A gene (based on Los Alamos HCV database isolates, both with M31 present) respectively, were dispensed into 384-well plates. To perform the assay for genotype 3 and 4, HCV 3a RLuc or 4a Rluc cells harboring a dicistronic NS5A chimeric genotype 1b Con1 replicon that encodes a RLuc reporter and either a consensus genotype 3a NS5A gene or genotype 4a NS5A gene (based on Los Alamos HCV database isolates) respectively, were dispensed into 384-well plates. Compounds were re-suspended in DMSO at a concentration of 10 mM and serially diluted in DMSO either manually or using an automated pipeting instrument. Serially diluted compounds were mixed with cell culture media and added to the seeded cells. […] 72 hours later, cells were lysed and Renilla luciferase activity quantified as recommended by the manufacturer (Promega-Madison, Wis.). Non-linear regression was performed to calculate EC50 values.
To determine the antiviral potency (EC50) against resistance mutants, resistance mutations, including M28T, Q30R, Q30H, L31M, and Y93C in genotype 1a NS5A and Y93H in genotype 1b NS5A, were introduced individually into either 1a Rluc or 1b Rluc replicons described above by site directed mutagenesis. Replicon RNA of each resistant mutant was transfected into Huh-7 cured-51 cells and antiviral potency was determined on these transfected cells as described above.

[7] = tested on: HCV 1b RLuc cells (dicistronic genotype 1b Con1 replicon, RLuc reporter); assay: microbe, parasite or virus in culture; settings: Hepatitis C virus, read-out: 1b (nM)
Method in brief: as §1

[8] = tested on: HCV 4a Rluc cells (NS5A chimeric genotype 1b Con1 replicon with genotype 4a NS5A gene); assay: microbe, parasite or virus in culture; settings: Hepatitis C virus, read-out: 4a
Method in brief: as §2

[9] = genotype 2a JFH-1 RLuc replicon
[10] = read-out: 3a, genotype 3a NS5A chimeric replicon
[11] = read-out: 3a, genotype 3a replicon

Structure (SMILES)	EC50 [1] [nM]	EC50 [2, 9] [nM]	EC50 [3] [nM]	EC50 [4, 10] [nM]	EC50 ([5]; genotype 1a H77 RLuc replicon) [nM]	EC50 [6] [nM]	EC50 [7] [nM]	EC50 ([2]; genotype 2a JFH-1 replicon) [nM]	EC50 [4, 11] [nM]	EC50 [8] [nM]	EC50 ([5]; genotype 1a replicon) [nM]	EC50 ([2]; 72 h, Table 1, genotype 2a JFH-1 replicon, 72 hours) [nM]	EC50 ([4]; read-out: 3a, Table 1, genotype 3a NS5A chimeric replicon) [nM]	EC50 ([7]; 72 h) [nM]	EC50 ([5]; 72 h, Table 1, genotype 1a H77 replicon, 72 hours) [nM]	EC50 ([2]; genotype 2a JFH-1 replicon, RLuc reporter) [nM]	EC50 ([4]; read-out: 3a, genotype 3a NS5A chimeric 1b Con1 replicon) [nM]	EC50 ([5]; genotype 1a H77 replicon, RLuc reporter) [nM]
CC[C@H](C)[C@H](NC(=O)OC)C(=O)N1[C@@H](C)CC[C@H]1c1ncc(-c2ccc3c(c2)COc2cc4c(ccc5nc([C@@H]6C[C@H](COC)CN6C(=O)[C@H](NC(=O)OC)c6ccccc6)[nH]c54)cc2-3)[nH]1 [Example 637]	0.001 to 0.999	0.001 to 0.999	0.001 to 0.999	0.001 to 0.99	0.001 to 0.999	0.001 to 0.999	–	–	–	–	–	–	–	–	–	–	–	–
COC(=O)N[C@H](C(=O)N1[C@@H](C)CC[C@H]1c1nc2ccc3cc4c(cc3c2[nH]1)OCc1cc(-c2cnc([C@@H]3C[C@H](C)CN3C(=O)[C@@H](NC(=O)OC)[C@@H](C)OC)[nH]2)ccc1-4)C(C)C [Example 612]	0.001 to 0.999	0.001 to 0.999	0.001 to 0.999	0.001 to 0.99	0.001 to 0.999	0.001 to 0.999	–	–	–	–	–	–	–	–	–	–	–	–
COC[C@H]1C[C@@H](c2nc3ccc4cc(-c5ccc6c(ccc7nc([C@@H]8CCCN8C(=O)[C@@H](NC(=O)OC)C(C)C)[nH]c76)c5)ccc4c3[nH]2)N(C(=O)[C@H](N)c2ccccc2)C1 [Example 598]	0.001 to 0.999	0.001 to 0.999	0.001 to 0.999	–	0.001 to 0.999	0.001 to 0.999	0.022	–	–	–	–	–	–	–	–	–	–	–
COC[C@H]1C[C@@H](c2ncc(-c3ccc4c(c3)COc3cc5c(ccc6nc([C@@H]7CC[C@H](C)N7C(=O)[C@@H](NC(=O)OC)C(C)C)[nH]c65)cc3-4)[nH]2)N(C(=O)[C@@H](NC(=O)OC)C(C)C)C1 [Example 600]	0.001 to 0.999	0.001 to 0.999	0.001 to 0.999	–	0.001 to 0.999	0.001 to 0.999	0.007	–	–	–	–	–	–	–	–	–	–	–
COC[C@H]1C[C@@H](c2ncc(-c3ccc4c(c3)COc3cc5c(cc3-4)CCc3nc([C@@H]4CC[C@H](C)N4C(=O)[C@@H](NC(=O)OC)C(C)C)[nH]c3-5)[nH]2)N(C(=O)[C@H](NC(=O)OC)c2ccccc2)C1 [Example 608]	0.001 to 0.999	0.001 to 0.999	0.001 to 0.999	–	0.001 to 0.999	0.001 to 0.999	0.017	–	–	–	–	–	–	–	–	–	–	–
COC(=O)N[C@H](C(=O)N1CCC[C@H]1c1nc(Cl)c(-c2cc3c4c(c2)OCc2cc(-c5[nH]c([C@@H]6CCCN6C(=O)[C@@H](NC(=O)OC)C(C)C)nc5Cl)cc(c2-4)OC3)[nH]1)C(C)C [Example 384]	1 to 44	–	–	–	–	1 to 44	0.013	0.001 to 0.999	0.001 to 0.99	0.001 to 0.99	0.001 to 0.999	–	–	–	–	–	–	–
COC(=O)N[C@H](C(=O)N1CCC[C@H]1c1nc2ccc3cc(-c4ccc5c(ccc6nc([C@@H]7C[C@H](SC)CN7C(=O)[C@@H](NC(=O)OC)C(C)C)[nH]c65)c4)ccc3c2[nH]1)C(C)C [Example 515]	0.001 to 0.999	0.001 to 0.999	1 to 44	0.001 to 0.99	0.001 to 0.999	–	0.047	–	–	0.001 to 0.99	–	–	–	–	–	–	–	–
COC(=O)N[C@@H](C(=O)N1[C@@H](C)CC[C@H]1c1ncc(-c2cc3c4c(c2)OCc2cc(-c5cnc([C@@H]6CC[C@H](C)N6C(=O)[C@H](NC(=O)OC)c6ccccc6)[nH]5)cc(c2-4)OC3)[nH]1)c1ccccc1 [Example 461]	1 to 44	–	0.001 to 0.999	–	–	–	0.02	0.001 to 0.999	0.001 to 0.99	0.001 to 0.99	0.001 to 0.999	–	–	–	–	–	–	–
COC(=O)N[C@H](C(=O)N1CCC[C@H]1c1nc2ccc3cc(-c4ccc5c(ccc6nc([C@@H]7C[C@H](COC(F)F)CN7C(=O)[C@H](NC(=O)C7CC7)c7ccccc7)[nH]c65)c4)ccc3c2[nH]1)C(C)C [Example 547]	0.001 to 0.999	0.001 to 0.999	0.001 to 0.999	0.001 to 0.99	0.001 to 0.999	–	0.005	–	–	0.001 to 0.99	–	–	–	–	–	–	–	–
COC(=O)NC(C(=O)N1CCC[C@H]1c1ncc(-c2cc3c4c(c2)OCc2cc(-c5[nH]c([C@@H]6CCCN6C(=O)C(NC(=O)OC)c6cccnc6)nc5Cl)cc(c2-4)OC3)[nH]1)c1cccnc1 (stereo partly drawn) [Example 420]	1 to 44	–	1 to 44	–	–	–	4.66	0.001 to 0.999	0.001 to 0.99	1 to 4.99	1 to 44	–	–	–	–	–	–	–
COC(=O)N[C@H](C(=O)N1CCC[C@H]1c1ncc(-c2ccc3c4c(ccc3c2)-c2ccc(-c3cnc([C@@H]5CCCN5C(=O)[C@@H](NC(=O)OC)C5CCOCC5)[nH]3)cc2CO4)[nH]1)C(C)C [Example 8]	> 44	–	> 44	–	–	–	–	–	–	0.001 to 0.99	–	0.001 to 0.999	1 to 4.99	0.006	0.001 to 0.999	–	–	–
O=C(N[C@@H](C(=O)N1CCC[C@H]1c1ncc(-c2cc3c4c(c2)OCc2cc(-c5cnc([C@@H]6CCCN6C(=O)[C@H](NC(=O)C6CC6)c6ccccc6)[nH]5)cc(c2-4)OC3)[nH]1)c1ccccc1)C1CC1 [Example 443]	0.001 to 0.999	–	0.001 to 0.999	–	–	–	0.167	0.001 to 0.999	0.001 to 0.99	0.001 to 0.99	0.001 to 0.999	–	–	–	–	–	–	–
COC(=O)N[C@H](C(=O)N1CCC[C@H]1c1nc2c([nH]1)-c1cc3c(cc1CC2)-c1ccc(-c2cnc([C@@H]4CCCN4C(=O)[C@H](NC(=O)C4CC4)c4ccccc4)[nH]2)cc1CO3)C(C)C [Example 494]	0.001 to 0.999	0.001 to 0.999	0.001 to 0.999	0.001 to 0.99	0.001 to 0.999	–	0.021	–	–	0.001 to 0.99	–	–	–	–	–	–	–	–
COC(=O)N[C@H](C(=O)N1CCC[C@H]1c1ncc(-c2cc3c4c(ccc5cc(-c6cnc([C@@H]7CCCN7C(=O)[C@@H](NC(=O)OC)C(C)C)[nH]6)cc(c54)OC3)c2)[nH]1)C(C)C [Example 408]	> 44	–	> 44	–	–	–	0.022	0.001 to 0.999	0.001 to 0.99	0.001 to 0.99	0.001 to 0.999	–	–	–	–	–	–	–
COC(=O)N[C@H](C(=O)N1CCC[C@H]1c1ncc(-c2ccc3c(ccc4cc(-c5cnc([C@@H]6CCCN6C(=O)[C@@H](NC(=O)OC)C(C)C)[nH]5)ccc43)c2)[nH]1)C(C)C [Example 282]	> 44	–	> 44	–	–	–	0.007	–	–	0.001 to 0.99	–	–	–	–	–	0.001 to 0.999	0.001 to 0.99	0.001 to 0.999
COC[C@H]1C[C@@H](c2nc3ccc4cc(-c5ccc(-c6cnc([C@@H]7CCCN7C(=O)[C@H](N)c7ccccc7)[nH]6)cc5)ccc4c3[nH]2)N(C(=O)[C@@H](NC(=O)OC)C(C)C)C1 [Example 477]	0.001 to 0.999	–	0.001 to 0.999	–	–	–	0.089	0.001 to 0.999	0.001 to 0.99	0.001 to 0.99	0.001 to 0.999	–	–	–	–	–	–	–
O=C(C(c1ccccc1)N1CCCOCC1)N1CCC[C@H]1c1ncc(-c2cc3c4c(c2)OCc2cc(-c5cnc([C@@H]6CCCN6C(=O)C(c6ccccc6)N6CCCOCC6)[nH]5)cc(c2-4)OC3)[nH]1 (stereo partly drawn) [Example 445]	1 to 44	–	1 to 44	–	–	–	0.336	0.001 to 0.999	0.001 to 0.99	0.001 to 0.99	1 to 44	–	–	–	–	–	–	–
